This is an account of results in US20190127692A1, “Production Method For Hepatocyte Lineage Cells, Hepatocyte Lineage Cell Or Culture Product Obtained By The Production Method, And Hepatocyte Differentiation-Inducing Medium” (National University Corporation Chiba University, priority 2017, published 2019).

SMILES strings stand for the structures.

Holding throughout (type): cell-based, human
Data set [1] has as its system 201B7 cells. The data set is described as follows: Optical microscope observation 1: precipitates and cell survival after 7-day culture (Example 3). As for the experimental part:
In the above-mentioned Examples, precipitates were formed in culture dishes in some cases. The formation of the precipitates inhibits contact between cells and medium to adversely affect long-term survival. Therefore, conditions under which the precipitates were not formed were investigated.
201B7 cells, ReproFF, HSM, and calcium lactate were prepared in the same manner as in Example 2.
5×10^4 201B7 cells were seeded to a 96-well plate coated with Matrigel. The next day, to HSM, calcium lactate was added at 3 μM, 10 μM, 30 μM, 100 μM, 300 μM, 1 mM, 3 mM, 10 mM, 30 mM, or 100 mM, followed by culture for 7 days.

Data set [2] deals with 201B7 cells. In words: Optical microscope observation 2: state of culture cells (Example 5). The settings on record: 1 mM, 7 days culture. As for the experimental part: 201B7 cells, HSM, calcium lactate, sodium lactate, and lactic acid were prepared in the same manner as in Example 2.
The 201B7 cells were seeded to a 6-well plate coated with Matrigel, and when 100% confluence had been reached, the medium was exchanged with 1 mM calcium lactate, 1 mM sodium lactate, or 1 mM lactic acid, followed by culture for 7 days.

Data set [3] concerns AFP. The data set is described as follows: Immunostaining with anti-AFP antibody (Example 6). The settings on record: HSM supplemented, 7 days culture. Here is the method:
201B7 cells, HSM, ReproFF, and calcium lactate were prepared in the same manner as in Example 2.
The 201B7 cells were seeded to an 8-well chamber slide and cultured. After 100% confluence had been reached, 1 mM calcium lactate was added to HSM, followed by culture for 7 days. As a control, the cells were cultured in ReproFF for 7 days.
The cells were fixed with 4% paraformaldehyde, and washed with phosphate buffered saline (PBS). The cells were incubated at 4° C. for 30 minutes in 100% methanol having added thereto 0.3% hydrogen peroxide solution to inactivate intrinsic peroxidase. The cells were washed three times with PBS. The cells were incubated at 4° C. for 30 minutes in PBS supplemented with 2% fetal bovine serum (wash buffer).
A mouse anti-human alpha-fetoprotein (AFP) antibody (manufactured by Takara Bio Inc., product code: M225) was diluted 1,000-fold with the wash buffer and added, followed by incubation at 4° C. overnight. The resultant was washed three times with PBS. An anti-mouse IgG antibody (manufactured by GE Healthcare) labeled with Horse-radish peroxidase was diluted 1,000-fold with the wash buffer, followed by incubation at 4° C. for 3 hours. The resultant was washed three times with PBS. Color development was performed with 3,3-diaminobenzidine (DAKO, K3467), and nuclei were stained with hematoxylin, followed by mounting.

The test system of another data set is albumin. The data set is described as follows: Albumin expression by real-time quantitative PCR (Example 4). The settings on record: 1 mM in HSM, 7 days culture, control ReproFF. Here is the method: (§1) 201B7 cells, ReproFF, HSM, calcium lactate, and sodium lactate were prepared in the same manner as in Example 2.
(§2) The 201B7 cells were seeded to a 6-well plate coated with Matrigel, and when 100% confluence had been reached, the medium was exchanged with 1 mM calcium lactate (Ca-lactate), 1 mM sodium lactate (Na-lactate), or 1 mM lactic acid (Lactate), followed by culture for 7 days. Control cells were cultured in ReproFF.
(§3) RNA was extracted and analyzed for the expression levels of AFP and albumin by real-time quantitative PCR.

Data set [4] relates to AFP. In words: AFP expression by real-time quantitative PCR (Example 4). The note with it: 1 mM in HSM, 7 days culture, control ReproFF. As for the experimental part: as §1, §2, §3
Setting [5] is: in HSM, 7 days culture, optical microscope.

Consider `CC(O)C(=O)O` (stereo not drawn) [lactic acid], for which the “cell survival in HSM supplemented with lactic acid (general remark)” value with 201B7 cells [1] (iPS cells, 7 days) was “survived even after 7 days”. The “state of cells as compared to cells cultured with calcium lactate” value with 201B7 cells [2] is recorded as “collapsing tendency”. For the same compound, the “AFP expression (immunostaining) as compared to cells cultured in ReproFF” value in the data set with AFP [3] is recorded as “upregulated”.
For `CC(O)C(=O)[O-].CC(O)C(=O)[O-].[Ca+2]` (stereo not drawn) [calcium lactate], the “expression of albumin as compared to the undifferentiated state” value in the data set with albumin is listed as “upregulated”. For the same compound, in the data set with 201B7 cells [1] (1 mM in HSM, 7 days culture), the cell survival entry is given as “survived”. For the same compound, in the data set with 201B7 cells [1] (setting [5]), the “concentration at which precipitates were found” value is not below 3000 µM and the “concentration at which precipitates were not found” value was not above 1000 µM. For the same compound, the “expression of AFP as compared to the undifferentiated state” value with AFP [4] is “upregulated”.
Consider `CC(O)C(=O)[O-].[Na+]` (stereo not drawn) [sodium lactate], for which the “expression of albumin as compared to the undifferentiated state” value in the data set on albumin is given as “upregulated”. Further, the “optical microscope observation, FIG. 3A” value in the data set with 201B7 cells [1] (3 mM, 7 days culture) was “precipitates”. Besides, in the data set with 201B7 cells [2], the “state of cells as compared to cells cultured with calcium lactate” value is “collapsing tendency”. For the same compound, the “expression of AFP as compared to the undifferentiated state” value in the data set with AFP [4] is reported as “upregulated”.
